Reference: patent US20260297060A1, “COMPOUNDS FOR THE DEGRADATION OF MUTANT BRAF” (C4 THERAPEUTICS, INC., priority 2023, published 2026)
Like-named read-outs stand apart in the source and are kept apart here.

Key:
[1] = biological target: T1, human bile salt export pump (BSEP) efflux transporter (Homo sapiens, UniProt O95342); assay: BSEP Vesicular Transport Inhibition Assay (IC50 determination); format: biochemical; details: human BSEP (HEK293) vesicles, taurocholate 0.2 μM, 4 mM Mg-ATP, 10 concentrations, 1 replicate
T1 construct: purchased SOLVO Biotechnology Charles River Laboratories, Szeged, Hungary; host or cells: HEK293 (inside out membrane vesicles)
T1 sequence (O95342 whole entry): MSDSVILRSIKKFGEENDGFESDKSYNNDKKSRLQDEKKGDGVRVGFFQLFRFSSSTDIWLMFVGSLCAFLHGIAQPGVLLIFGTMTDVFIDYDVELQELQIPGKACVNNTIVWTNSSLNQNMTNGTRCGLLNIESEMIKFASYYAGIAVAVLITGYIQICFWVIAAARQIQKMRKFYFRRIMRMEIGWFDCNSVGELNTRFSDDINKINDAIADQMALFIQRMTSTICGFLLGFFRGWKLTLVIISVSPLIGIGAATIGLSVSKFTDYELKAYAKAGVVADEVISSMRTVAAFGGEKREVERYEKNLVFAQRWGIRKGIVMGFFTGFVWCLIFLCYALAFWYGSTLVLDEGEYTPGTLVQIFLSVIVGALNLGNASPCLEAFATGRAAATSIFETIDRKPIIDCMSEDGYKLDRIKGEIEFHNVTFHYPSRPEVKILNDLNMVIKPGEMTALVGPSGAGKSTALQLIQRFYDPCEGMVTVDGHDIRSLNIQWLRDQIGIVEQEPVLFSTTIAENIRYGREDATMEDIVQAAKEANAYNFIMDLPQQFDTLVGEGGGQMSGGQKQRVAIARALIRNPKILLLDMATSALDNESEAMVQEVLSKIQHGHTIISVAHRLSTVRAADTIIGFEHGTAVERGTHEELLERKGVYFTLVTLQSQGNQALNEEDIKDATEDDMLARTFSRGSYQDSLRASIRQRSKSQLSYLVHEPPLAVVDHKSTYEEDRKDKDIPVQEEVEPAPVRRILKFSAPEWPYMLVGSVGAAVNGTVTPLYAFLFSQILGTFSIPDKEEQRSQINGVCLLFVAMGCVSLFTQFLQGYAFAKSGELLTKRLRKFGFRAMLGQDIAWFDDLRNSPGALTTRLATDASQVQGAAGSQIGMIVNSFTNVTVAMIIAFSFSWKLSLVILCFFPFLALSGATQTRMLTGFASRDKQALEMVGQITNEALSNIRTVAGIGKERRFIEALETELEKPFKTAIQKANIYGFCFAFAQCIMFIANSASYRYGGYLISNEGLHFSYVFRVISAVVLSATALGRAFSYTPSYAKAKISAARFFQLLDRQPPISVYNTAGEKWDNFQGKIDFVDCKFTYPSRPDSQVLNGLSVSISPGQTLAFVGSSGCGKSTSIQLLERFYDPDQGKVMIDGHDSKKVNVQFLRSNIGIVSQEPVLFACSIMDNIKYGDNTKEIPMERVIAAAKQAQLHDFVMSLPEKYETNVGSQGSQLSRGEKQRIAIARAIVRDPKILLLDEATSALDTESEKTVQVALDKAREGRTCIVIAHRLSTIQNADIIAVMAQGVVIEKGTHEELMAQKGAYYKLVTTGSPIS
Method: The vesicular transport (VT) assays were performed using inside out membrane vesicles derived from HEK293 cells expressing the specified human bile salt export pump (BSEP) efflux transporter. The membrane vesicles were procured from SOLVO Biotechnology Charles River Laboratories, Szeged, Hungary.
The principle of the assay relies on measuring the accumulation of substrate into inside out vesicles containing the efflux transporter. By utilizing inside out vesicles, the ATP-dependent transport of substrate is directed into the vesicular lumen, where low permeability compounds are then essentially trapped.
For the IC50 screen inhibition assay, 10 concentrations of each compound were tested in the presence of ATP (active transport) in 1 replicate.
The solvent control (DMSO) was tested in the presence of ATP (active transport) and in the presence of AMP (background) in 8 replicates.
Vesicular transport inhibition assays were performed using the specific parameters for each transporter inhibition assay described in Table 53.
Table 54 specifies treatment groups and concentration of compounds, that were examined in the vesicular transport inhibition assay. Detailed data of IC50 screen inhibition assay are shown in Table 55 and detailed data of 1 concentration inhibition assay are shown in Table 56.
The vesicular transport inhibition assay was performed with 4 mM Mg-ATP. For the IC50 screen inhibition assay, 10 concentrations of each compound were tested in the presence of ATP in 1 replicate. For the 1 concentration inhibition assay, 1 concentration of each compound was tested in the presence of ATP (active transport) in 2 replicates. The solvent control (DMSO) was tested in the presence of 4 mM Mg-ATP (active transport) and in the presence of 4 mM AMP (background) in 8 replicates.
The BSEP membrane vesicle suspension was mixed with the ice-cold transport buffer, then the taurocholate probe substrate solution was added (Reaction mixture, 50 μL per well). The compounds were added to the reaction mixture at 1.5-times the final assay concentration. […].
Reaction mixtures and the start reagent (Mg-ATP or AMP in transport buffer) were pre-warmed separately for 15 minutes to reach the incubation temperature of 37° C. […]
The reaction was initiated by the addition of the start reagent (25 μL) to the reaction mixture (diluting the reaction mixture to the final concentration). […] After the 5-minute incubation at 37° C., the reaction was stopped by the addition of 250 μL ice-cold washing mix to each well. […]
The samples were then be transferred to a filter plate and washed with 200 μL cold washing mix5-times to remove any free compounds or taurocholate probe substrate. The amount of taurocholate probe substrate inside the filtered vesicles were determined by liquid scintillation counting. […]

[2] = Example 9 pharmacokinetics assay for the PK and PD study Part I, II and III (plasma, tumor, liver); format: in vivo, BALB/c nude mice; details: mouse, po, 10 mg/kg, p.o., single dose, ± SEM
Method: For the PK and PD study Part I, agents were administered to BALB/c nude mice bearing A375 human melanoma xenografts tumors. Dabrafenib, Compound 218 and Compound 157 were dosed via p.o. once on day 1. Dabrafenib was dosed at 100 mg/kg. Compound 218 and Compound 157 were dosed at 10 mg/kg.
For the PK and PD study Part II, agents were administered to BALB/c nude mice bearing A375 human melanoma xenografts tumors. Compound 133, Compound 144 and Compound 198 were dosed at 10 mg/kg via p.o. once on day 1.
For the PK and PD study Part III, agent was administered to BALB/c nude mice bearing A375 human melanoma xenografts tumors. Compound 204 were dosed at 10 mg/kg via p.o. once on day 1.
The plasma samples were collected at predetermined time points for PK analysis. The mice were euthanized at predetermined time points post the treatment. The blood samples were collected into the 1.5 mL Eppendorf tubes containing 15 μL of 0.5 M EDTA-K2. And then the anticoagulant blood samples were centrifuged at 2,500 g at 4° C. for 15 minutes. The plasma samples were separated into 2 aliquots. The 1st was used for PK analysis, and the 2nd served as backup. The samples were stored at −80° C. before bioanalysis.
The tumor samples were collected at predetermined time points for PK and WB analysis. The tumor was dissected out and split into 3 parts. The 1st part was used for PK analysis, the 2nd part was used for WB analysis and the last one served as backup for study. The samples were transferred into pre-labeled tubes and quickly froze in liquid nitrogen within 2 minutes after dissection. The samples were stored at −80° C. before bioanalysis.
Liver samples were collected at predetermined time points for PK analysis. The left lobe of the liver was dissected out and split into 2 parts. The 1st part was used for PK analysis and the 2nd part served as the backup for the study. The samples were transferred into pre-labeled tubes and quickly froze in liquid nitrogen within 2 minutes after dissection. The samples were stored at −80° C. before bioanalysis.
The harvested plasma, tumor and liver samples were processed for pharmacokinetics analysis by LC-MS/MS with a concentration range of 5.00-10,000 ng/mL for Compound 218, Compound 157 and Compound 133 in plasma, 0.500-1,000 ng/ml for Compound 218 in liver and tumor homogenate, 0.200-400 ng/mL for Compound 157, Dabrafenib and Compound 133 in liver and tumor homogenate, 0.500-1000 ng/mL for Dabrafenib and Compound 204 in plasma, 0.200-200 ng/mL for Compound 204 in liver and tumor homogenate, 20.0-20,000 ng/mL for Compound 144 and Compound 198 in plasma, 1.00-1,000 ng/mL for Compound 144 and Compound 198 in liver and tumor homogenate.

[3] = liver, read-out: Mean Concentration in Liver
[4] = plasma, read-out: Mean Concentration in Plasma
[5] = tumor, read-out: Mean Concentration in Tumor

Structure (SMILES) | BSEP Inhibition/IC50 ([1]; in nM) | concentration at 6 h [2, 3] | concentration at 12 h [2, 3] | concentration at 1 h [2, 4] | concentration at 6 h [2, 4] | concentration at 12 h [2, 4] | concentration at 1 h [2, 5] | concentration at 6 h [2, 5] | concentration at 12 h [2, 5] | concentration at 24 h [2, 4] | concentration at 24 h [2, 5] | BSEP Inhibition/IC50 [1]
CCN(C)S(=O)(=O)Nc1ccc(F)c(Oc2ccc3ncn(C4CC5(C4)CN(C4CCC(c6cc7c(cc6F)c(N6CCC(=O)NC6=O)nn7C)CC4)C5)c(=O)c3c2)c1C#N (single isomer, unassigned) [Compound 204, 6-[2-cyano-3-[[ethyl(methyl)sulfamoyl]amino]-6-fluoro-phenoxy]-3-[2-[4-[3-(2,4-dioxohexahydropyrimidin-1-yl)-5-fluoro-1-methyl-indazol-6-yl]cyclohexyl]-2-azaspiro[3.3]heptan-6-yl]-4-oxo-quinazoline] | >40000 | 606 ± 73.4 ng/g | 291 ± 103 ng/g | 2070 ± 407 ng/mL | 104 ± 6.18 ng/mL | 32.9 ± 12.1 ng/mL | 74.7 ± 16.5 ng/g | 112 ± 11 ng/g | 45 ± 9.93 ng/g |  |  | 
CCN(C)S(=O)(=O)Nc1ccc(F)c(Oc2ccc3ncc(OC4CC5(CCN(C6CCC(c7cc8c(cc7F)c(N7CCC(=O)NC7=O)nn8C)CC6)CC5)C4)nc3c2)c1C#N (single isomer, unassigned) [Compound 218, 7-[2-cyano-3-[[ethyl(methyl)sulfamoyl]amino]-6-fluoro-phenoxy]-2-[[7-[4-[3-(2,4-dioxohexahydropyrimidin-1-yl)-5-fluoro-1-methyl-indazol-6-yl]cyclohexyl]-7-azaspiro[3.5]nonan-2-yl]oxy]quinoxaline] | 13210 | 5710 ± 300 ng/g | 972 ± 40.9 ng/g | 6310 ± 978 ng/mL | 1750 ± 96.1 ng/mL | 206 ± 11.5 ng/mL | 1850 ± 164 ng/g | 1360 ± 21.9 ng/g | 268 ± 26.7 ng/g | 6.2 ± 3.47 ng/mL | 13.4 ± 4.31 ng/g | 
Cn1nc(N2CCC(=O)NC2=O)c2cc(F)c(N3CC4(CC(N5CCC6(CC5)C[C@@H](n5cnc7ccc(Oc8c(F)ccc(NS(=O)(=O)N9CC[C@@H](F)C9)c8C#N)cc7c5=O)CO6)C4)C3)cc21 [Compound 133, (3R)-N-[2-cyano-3-[3-[(3R)-8-[2-[3-(2,4-dioxohexahydropyrimidin-1-yl)-5-fluoro-1-methyl-indazol-6-yl]-2-azaspiro[3.3]heptan-6-yl]-1-oxa-8-azaspiro[4.5]decan-3-yl]-4-oxo-quinazolin-6-yl]oxy-4-fluoro-phenyl]-3-fluoro-pyrrolidine-1-sulfonamide] |  | 2030 ± 179 ng/g | 503 ± 207 ng/g | 8880 ± 604 ng/mL | 3460 ± 69.8 ng/mL | 733 ± 348 ng/mL | 764 ± 122 ng/g | 686 ± 6.23 ng/g | 316 ± 172 ng/g | 23.4 ± 5.56 ng/mL | 41.7 ± 26.4 ng/g | 6.22 µM
CO[C@@H]1CCN(S(=O)(=O)Nc2ccc(F)c(Oc3ccc4ncn([C@H]5COC6(CCN(C7CC8(C7)CN(c7cc9c(cc7F)c(N7CCC(=O)NC7=O)nn9C)C8)CC6)C5)c(=O)c4c3)c2C#N)C1 [Compound 144, (3R)-N-[2-cyano-3-[3-[(3R)-8-[2-[3-(2,4-dioxohexahydropyrimidin-1-yl)-5-fluoro-1-methyl-indazol-6-yl]-2-azaspiro[3.3]heptan-6-yl]-1-oxa-8-azaspiro[4.5]decan-3-yl]-4-oxo-quinazolin-6-yl]oxy-4-fluoro-phenyl]-3-methoxy-pyrrolidine-1-sulfonamide] |  | 1890 ± 584 ng/g | 873 ± 234 ng/g | 11600 ± 2260 ng/mL | 6220 ± 1880 ng/mL | 1240 ± 395 ng/mL | 946 ± 172 ng/g | 1180 ± 406 ng/g | 616 ± 127 ng/g | 143 ± 15.4 ng/mL | 183 ± 45.4 ng/g | 7.94 µM
CO[C@H]1CCN(S(=O)(=O)Nc2ccc(F)c(Oc3ccc4ncn([C@H]5COC6(CCN(C7CC8(C7)CN(c7cc9c(cc7F)c(N7CCC(=O)NC7=O)nn9C)C8)CC6)C5)c(=O)c4c3)c2C#N)C1 [Compound 157, (3S)-N-[2-cyano-3-[3-[(3R)-8-[2-[3-(2,4-dioxohexahydropyrimidin-1-yl)-5-fluoro-1-methyl-indazol-6-yl]-2-azaspiro[3.3]heptan-6-yl]-1-oxa-8-azaspiro[4.5]decan-3-yl]-4-oxo-quinazolin-6-yl]oxy-4-fluoro-phenyl]-3-methoxy-pyrrolidine-1-sulfonamide] |  | 2000 ± 132 ng/g | 1320 ± 233 ng/g | 14700 ± 2000 ng/mL | 14700 ± 1560 ng/mL | 5420 ± 1400 ng/mL | 1460 ± 376 ng/g | 1990 ± 120 ng/g | 1470 ± 329 ng/g | 161 ± 40.1 ng/mL | 183 ± 137 ng/g | 8.83 µM
